From ChEMBL document CHEMBL1201862, “PubChem BioAssay data set” (2004)
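Where inhibition never reached the appropriate level, the endpoint shown equals the highest concentration tested. Otherwise, values were interpolated linearly from a five-concentration, 48-hour dose response in 96-well plates. GI50 marks 50% less growth.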 Activity calls are given as the source filed them. No stated cut-off is given here; in the data, active = GI50 up to about 1.1 µM and inactive = higher.

Tests used:
Assay in all cases: growth of human tumour cells (NCI), 48 h
NCI-H23 = system: NCI-H23
SF-268 = system: SF-268
T47D = system: T47D
A549 = system: A549
CCRF-CEM = system: CCRF-CEM
ACHN = system: ACHN
COLO 205 = system: COLO 205
SF-295 = system: SF-295
HOP-92 = system: HOP-92
NCI-H226 = system: NCI-H226
OVCAR-5 = system: OVCAR-5
SK-MEL-28 = system: SK-MEL-28
MDA-MB-435 = system: MDA-MB-435
SN12C = system: SN12C
BT-549 = system: BT-549
HL-60 = system: HL-60
786-0 = system: 786-0
UO-31 = system: UO-31
PC-3 = system: PC-3
MOLT-4 = system: MOLT-4

| SMILES | GI50 (NCI-H23) | GI50 (SF-268) | GI50 (T47D) | GI50 (A549) | GI50 (CCRF-CEM) | GI50 (ACHN) | GI50 (COLO 205) | GI50 (SF-295) | GI50 (HOP-92) | GI50 (NCI-H226) | GI50 (OVCAR-5) | GI50 (SK-MEL-28) | GI50 (MDA-MB-435) | GI50 (SN12C) | GI50 (BT-549) | GI50 (HL-60) | GI50 (786-0) | GI50 (UO-31) | GI50 (PC-3) | GI50 (MOLT-4) |
| --- | --- | --- | --- | --- | --- | --- | --- | --- | --- | --- | --- | --- | --- | --- | --- | --- | --- | --- | --- | --- |
| O=C(O[C@H](/C=C/c1ccccc1)P1(=O)N(Cc2ccccc2)[C@@H]2CCCC[C@H]2N1Cc1ccccc1)c1ccccc1 | 2.47 µM (inactive) | 4.06 µM (inactive) | 0.875 µM (active) | 3.66 µM (inactive) | 2.74 µM (inactive) | 3.94 µM (inactive) | 2.17 µM (inactive) | 3.79 µM (inactive) | 1.91 µM (inactive) | 2.61 µM (inactive) | 4.17 µM (inactive) | 3.05 µM (inactive) | 3.63 µM (inactive) | 3.07 µM (inactive) | 4.55 µM (inactive) | 3.66 µM (inactive) | 3.83 µM (inactive) | 4.5 µM (inactive) | 3.39 µM (inactive) | – |
| O=c1ccn(C/C=C/c2ccccc2)c(=S)n1C/C=C/c1ccccc1 | 33.3 µM (inactive) | > 100 µM (inactive) | 20.9 µM (inactive) | 17.7 µM (inactive) | 18.4 µM (inactive) | > 100 µM (inactive) | 54 µM (inactive) | > 100 µM (inactive) | > 100 µM (inactive) | > 100 µM (inactive) | > 100 µM (inactive) | > 100 µM (inactive) | 60 µM (inactive) | 31.3 µM (inactive) | 68.2 µM (inactive) | 13.8 µM (inactive) | > 100 µM (inactive) | 76 µM (inactive) | 56.4 µM (inactive) | 50.4 µM (inactive) |
| Nc1ccc(S(=O)(=O)Nc2nc3ccccc3nc2N2CCCCC2)cc1 | 36.1 µM (inactive) | > 100 µM (inactive) | 41.6 µM (inactive) | 48.1 µM (inactive) | 48.5 µM (inactive) | 98.6 µM (inactive) | 64.9 µM (inactive) | 71.4 µM (inactive) | 53 µM (inactive) | > 100 µM (inactive) | > 100 µM (inactive) | 92.9 µM (inactive) | > 100 µM (inactive) | 82 µM (inactive) | 23.8 µM (inactive) | 46.3 µM (inactive) | > 100 µM (inactive) | 11.3 µM (inactive) | 59.3 µM (inactive) | 27.5 µM (inactive) |
| CC(=O)OC[C@H]1On2nnnc2[C@H](OC(C)=O)[C@@H](OC(C)=O)[C@@H]1OC(C)=O | > 100 µM (inactive) | > 100 µM (inactive) | > 100 µM (inactive) | > 100 µM (inactive) | > 100 µM (inactive) | > 100 µM (inactive) | > 100 µM (inactive) | > 100 µM (inactive) | > 100 µM (inactive) | > 100 µM (inactive) | > 100 µM (inactive) | > 100 µM (inactive) | > 100 µM (inactive) | > 100 µM (inactive) | > 100 µM (inactive) | > 100 µM (inactive) | > 100 µM (inactive) | > 100 µM (inactive) | > 100 µM (inactive) | > 100 µM (inactive) |
| CC(C)(C)OC(=O)C1C(=O)NC(=O)CC1C(COCc1ccccc1)OCc1ccccc1 (configuration not stated) | 32.6 µM (inactive) | 26.7 µM (inactive) | 14.3 µM (inactive) | 30.4 µM (inactive) | 25.5 µM (inactive) | 23 µM (inactive) | – | 20.5 µM (inactive) | 15.5 µM (inactive) | 17.6 µM (inactive) | 12.2 µM (inactive) | 18.1 µM (inactive) | 19.1 µM (inactive) | > 10 µM (inactive) | 32.1 µM (inactive) | 21.4 µM (inactive) | 24.3 µM (inactive) | 27.1 µM (inactive) | 12.4 µM (inactive) | 17.5 µM (inactive) |
| Oc1nc2c(c(-c3ccc(Br)cc3)n1)COC/C2=C\c1ccc(Br)cc1 | > 50 µM (inactive) | > 50 µM (inactive) | > 50 µM (inactive) | – | > 50 µM (inactive) | > 50 µM (inactive) | > 50 µM (inactive) | > 50 µM (inactive) | > 50 µM (inactive) | > 50 µM (inactive) | > 50 µM (inactive) | > 50 µM (inactive) | 29.4 µM (inactive) | > 50 µM (inactive) | > 50 µM (inactive) | > 50 µM (inactive) | > 50 µM (inactive) | > 50 µM (inactive) | > 50 µM (inactive) | > 50 µM (inactive) |
| Cc1n[nH]c(=O)c2cc(-c3ccccc3)[nH]c12 | 84.1 µM (inactive) | 59.7 µM (inactive) | 27.5 µM (inactive) | 49 µM (inactive) | 48.2 µM (inactive) | 32.8 µM (inactive) | 27.7 µM (inactive) | 35.8 µM (inactive) | > 100 µM (inactive) | 72.9 µM (inactive) | 50.7 µM (inactive) | – | 51.9 µM (inactive) | 75.3 µM (inactive) | 91.4 µM (inactive) | 54 µM (inactive) | > 100 µM (inactive) | 49.3 µM (inactive) | 34.5 µM (inactive) | 17.6 µM (inactive) |
| c1ccc2c[n+](CCCCCCCCCC[n+]3ccc4ccccc4c3)ccc2c1 | 1 µM (active) | > 10 µM (inactive) | > 10 µM (inactive) | 0.585 µM (active) | > 10 µM (inactive) | > 10 µM (inactive) | 4.76 µM (inactive) | 3.59 µM (inactive) | > 10 µM (inactive) | > 3.34 µM (inactive) | > 5.09 µM (inactive) | 7.43 µM (inactive) | > 10 µM (inactive) | 0.92 µM (active) | 2.11 µM (inactive) | > 10 µM (inactive) | > 10 µM (inactive) | > 10 µM (inactive) | > 7.52 µM (inactive) | – |
| COc1cc([C@@H]2c3cc4c(cc3[C@@H](OC3OC5COC(C)OC5C(O)C3O)[C@H]3COC(=O)[C@H]23)OCO4)cc(OC)c1O (some centres not stated) | 6.01 µM (inactive) | 7.6 µM (inactive) | 0.897 µM (active) | 3.61 µM (inactive) | 1.4 µM (inactive) | – | 40.3 µM (inactive) | 5.92 µM (inactive) | 9.2 µM (inactive) | 3.44 µM (inactive) | 25.2 µM (inactive) | 22.1 µM (inactive) | 28.2 µM (inactive) | 5.2 µM (inactive) | 2.4 µM (inactive) | 0.807 µM (active) | – | 42.3 µM (inactive) | 0.661 µM (active) | 0.547 µM (active) |
| COc1ccccc1NCc1cccc2c(=O)c3ccc(Cl)cc3oc12 | 59.3 µM (inactive) | – | > 100 µM (inactive) | 78.3 µM (inactive) | 48 µM (inactive) | > 100 µM (inactive) | 56.9 µM (inactive) | > 100 µM (inactive) | 25.7 µM (inactive) | > 100 µM (inactive) | > 100 µM (inactive) | > 100 µM (inactive) | 65 µM (inactive) | > 100 µM (inactive) | > 100 µM (inactive) | 22.9 µM (inactive) | > 100 µM (inactive) | 95.9 µM (inactive) | 58.7 µM (inactive) | > 100 µM (inactive) |
| O=C(Cc1nc2ccc(C(=O)c3ccccc3)cc2nc1O)C(=O)Nc1ccccc1[N+](=O)[O-] | 42.2 µM (inactive) | 87.7 µM (inactive) | 54.3 µM (inactive) | > 100 µM (inactive) | 50.9 µM (inactive) | 67.3 µM (inactive) | – | 48.6 µM (inactive) | 65.9 µM (inactive) | 13.8 µM (inactive) | > 100 µM (inactive) | 94.8 µM (inactive) | 38.9 µM (inactive) | > 100 µM (inactive) | 58.9 µM (inactive) | 40.3 µM (inactive) | 80.2 µM (inactive) | 40 µM (inactive) | 51.1 µM (inactive) | – |
| CC1(C)CC(=O)C(C(c2cccc(O)c2O)C2C(=O)CC(C)(C)CC2=O)C(=O)C1 | > 100 µM (inactive) | 73.8 µM (inactive) | 91.2 µM (inactive) | > 100 µM (inactive) | 20.1 µM (inactive) | > 100 µM (inactive) | > 100 µM (inactive) | > 100 µM (inactive) | 49.3 µM (inactive) | > 100 µM (inactive) | > 100 µM (inactive) | > 100 µM (inactive) | 91 µM (inactive) | > 100 µM (inactive) | > 100 µM (inactive) | < 0.01 µM (active) | 52.6 µM (inactive) | – | > 100 µM (inactive) | 30.3 µM (inactive) |
| Cc1c(C)c2c(c(N)c1C#N)C(=O)N(CCc1ccccc1)C2=O | – | > 100 µM (inactive) | > 100 µM (inactive) | 94.8 µM (inactive) | > 100 µM (inactive) | > 100 µM (inactive) | > 100 µM (inactive) | > 100 µM (inactive) | > 100 µM (inactive) | > 100 µM (inactive) | > 100 µM (inactive) | > 100 µM (inactive) | > 100 µM (inactive) | > 100 µM (inactive) | > 100 µM (inactive) | 29.2 µM (inactive) | > 100 µM (inactive) | > 100 µM (inactive) | > 100 µM (inactive) | 72.6 µM (inactive) |
| O=C(O)CNc1ccc(Cl)c(Cl)c1 | 34.4 µM (inactive) | 28.9 µM (inactive) | 15.6 µM (inactive) | 32.1 µM (inactive) | 31.6 µM (inactive) | 20 µM (inactive) | 18.5 µM (inactive) | 24.6 µM (inactive) | 15.8 µM (inactive) | 27.5 µM (inactive) | 40.9 µM (inactive) | – | 26.3 µM (inactive) | 32.7 µM (inactive) | 36.7 µM (inactive) | 24 µM (inactive) | 24.7 µM (inactive) | 24.9 µM (inactive) | 24.6 µM (inactive) | 29.6 µM (inactive) |
